Reference: ChEMBL document CHEMBL4376861, “Docking Finds GPCR Ligands in Dark Chemical Matter” (J Med Chem, 2020)
pKi: −log10 of the molar value.

Columns and labels:
Adenosine receptor A2a [1] = molecular target: T1, Adenosine receptor A2a (Homo sapiens, UniProt P29274); test: Displacement of [3H]ZM241385 from adenosine A2A receptor in human HeLa cell membranes at 10 uM incubated for 30 mins by scintillation counting method relative to control
D(4) dopamine receptor = molecular target: T2, D(4) dopamine receptor (Homo sapiens, UniProt P21917); test: Displacement of [3H]spiperone from human dopamine D4 receptor expressed in cell membranes incubated for 60 mins by scintillation counting method
T2 sequence (P21917 whole entry): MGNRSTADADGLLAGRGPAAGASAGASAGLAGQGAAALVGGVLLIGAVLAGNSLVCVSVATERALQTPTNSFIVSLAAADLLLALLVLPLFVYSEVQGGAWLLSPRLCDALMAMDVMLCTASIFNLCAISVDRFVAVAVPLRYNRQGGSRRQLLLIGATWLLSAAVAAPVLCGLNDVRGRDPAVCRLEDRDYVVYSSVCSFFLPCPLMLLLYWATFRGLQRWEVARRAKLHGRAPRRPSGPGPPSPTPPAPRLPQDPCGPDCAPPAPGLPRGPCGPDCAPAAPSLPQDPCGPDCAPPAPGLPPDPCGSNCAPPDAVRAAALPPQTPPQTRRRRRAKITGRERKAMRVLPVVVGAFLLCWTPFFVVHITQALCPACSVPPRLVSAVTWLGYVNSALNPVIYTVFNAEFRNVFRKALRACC

[2] = molecular target: T3, Adenosine receptor A1 (Homo sapiens) (UniProt P30542); test: Displacement of [3H]DPCPX from human adenosine […] receptor expressed in […] cell membranes at 10 uM incubated for 60 mins by scintillation counting method relative to control
T3 sequence (whole entry): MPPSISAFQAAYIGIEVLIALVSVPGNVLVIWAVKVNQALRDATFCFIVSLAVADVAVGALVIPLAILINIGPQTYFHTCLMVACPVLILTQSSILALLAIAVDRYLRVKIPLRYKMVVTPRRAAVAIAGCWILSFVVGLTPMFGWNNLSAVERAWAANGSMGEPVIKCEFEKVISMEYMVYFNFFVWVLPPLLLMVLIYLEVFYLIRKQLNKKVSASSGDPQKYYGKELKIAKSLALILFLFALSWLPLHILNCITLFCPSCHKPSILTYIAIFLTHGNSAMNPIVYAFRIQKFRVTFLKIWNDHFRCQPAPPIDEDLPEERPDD

D(3) dopamine receptor [3] = molecular target: T4, D(3) dopamine receptor (Homo sapiens, UniProt P35462); test: Displacement of [3H]spiperone from human dopamine D3 receptor expressed in cell membranes incubated for 60 mins by scintillation counting method
T4 sequence (P35462 whole entry): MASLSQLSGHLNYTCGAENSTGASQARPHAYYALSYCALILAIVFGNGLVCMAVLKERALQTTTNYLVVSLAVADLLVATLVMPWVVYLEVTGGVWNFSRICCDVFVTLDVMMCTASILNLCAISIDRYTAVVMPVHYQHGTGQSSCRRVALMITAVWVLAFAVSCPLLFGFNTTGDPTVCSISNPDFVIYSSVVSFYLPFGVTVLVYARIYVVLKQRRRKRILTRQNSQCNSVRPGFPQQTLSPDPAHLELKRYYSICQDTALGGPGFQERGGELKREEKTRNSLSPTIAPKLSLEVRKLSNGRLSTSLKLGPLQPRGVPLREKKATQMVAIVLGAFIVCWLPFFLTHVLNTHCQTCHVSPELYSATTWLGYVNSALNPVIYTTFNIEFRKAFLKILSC

Adenosine receptor A2a [4] = molecular target: T1, Adenosine receptor A2a; test: Displacement of [3H]ZM241385 from adenosine A2A receptor in human HeLa cell membranes incubated for 30 mins by scintillation counting method
[5] = molecular target: T5, D(4) dopamine receptor (Homo sapiens) (UniProt P21917); test: Displacement of [3H]spiperone from human dopamine D4 receptor expressed in cell membranes at 10 uM incubated for 60 mins by scintillation counting method relative to control
T5 sequence (whole entry): T2 sequence (P21917 whole entry)

Adenosine receptor A1 = molecular target: T6, Adenosine receptor A1 (Homo sapiens, UniProt P30542); test: Displacement of [3H]DPCPX from human adenosine […] receptor expressed in […] cell membranes incubated for 60 mins by scintillation counting method
T6 sequence (P30542 whole entry): T3 sequence (whole entry)

D(3) dopamine receptor [6] = molecular target: T4, D(3) dopamine receptor; test: Displacement of [3H]spiperone from human dopamine D3 receptor expressed in cell membranes at 10 uM incubated for 60 mins by scintillation counting method

T1 sequence (P29274 whole entry): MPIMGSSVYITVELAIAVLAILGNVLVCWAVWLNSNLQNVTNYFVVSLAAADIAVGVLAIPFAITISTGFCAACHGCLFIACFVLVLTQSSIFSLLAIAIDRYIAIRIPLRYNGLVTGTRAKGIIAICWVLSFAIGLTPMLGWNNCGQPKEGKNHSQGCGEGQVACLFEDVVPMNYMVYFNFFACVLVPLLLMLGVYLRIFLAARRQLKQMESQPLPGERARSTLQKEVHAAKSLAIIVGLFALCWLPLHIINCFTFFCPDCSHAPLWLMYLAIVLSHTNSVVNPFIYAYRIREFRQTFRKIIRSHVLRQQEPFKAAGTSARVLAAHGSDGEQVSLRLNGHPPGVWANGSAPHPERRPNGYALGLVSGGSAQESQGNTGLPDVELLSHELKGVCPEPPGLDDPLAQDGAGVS

inhibition (Adenosine receptor A2a [1]) [%]	pKi (D(4) dopamine receptor)	inhibition [2] [%]	pKi (D(3) dopamine receptor [3])	pKi (Adenosine receptor A2a [4])	inhibition [5] [%]	pKi (Adenosine receptor A1)	inhibition (D(3) dopamine receptor [6]) [%]	SMILES
7	6.38	19	4.96					Cc1ccc(C(=O)C2CCN(CC(=O)NC3CCCC3)CC2)cc1
				5.31	12	5.66	6	CCOC(=O)c1nc(N)c(=O)n(-c2ccccc2)n1
				6.89	7	7.44	4	Nc1nc(-c2ccccc2)nn1C(=O)c1ccco1
13	6.26	13	5.80					Cc1cccc2cc(CNCc3ccccc3)c(Cl)nc12
